Measured values reported in patent publication US20240382520A1, “COMPOSITION FOR PREVENTING AND TREATING CANCER THROUGH MITOCHONDRIAL METABOLISM REGULATION CONTAINING NANOGRAPHENE STRUCTURE” (SEOUL NATIONAL UNIVERSITY R & DB FOUNDATION, priority 2021, published 2024).

System: colon cancer
Test: Oral administration in colon cancer model induced with Azoxymethane and Dextran sodium sulfate (DSS)
Assay type: in vivo, mouse
Procedure: It was determined whether orally administering the nanographene structure or a modified structure thereof has an effect on cancer occurrence and the mitigation of progression in vivo. Specifically, according to Table 1, rats that were not induced with colon cancer (sham group) and rats that were induced with colon cancer and administered with nanographene oxide (danGO group) were used, and rats that were induced with colon cancer were used as a negative control group (vehicle group), and as a positive control group, rats that were administered with 5-fluorouracil (5-FU), which is an anticancer drug, were prepared. In the negative control group, colon cancer was induced by using Azoxymethane and Dextran sodium sulfate (DSS). In the danGO group which was the experimental group, danGO was orally administered at a dose of 250 μg/mouse 5 times every 3 days to rats that were induced with colon cancer.
In the same manner as in Example 7-1, the effect of modified nanographene oxide, NGO-NH2, on in vivo cancer occurrence and progression mitigation was confirmed.
Next, the spleen was separated and the size and weight were measured in order to determine the effect on the degree of systemic inflammation. The spleen is an important lymphoid organ, accounting for about 25% of the body weight of the lymphatic organ. […]

## O=c1[nH]cc(F)c(=O)[nH]1 [5-FU, 5-fluorouracil]
Example 7-1, oral, danGO 250 μg/mouse 5 times every 3 days
  length of the colon compared to the vehicle group: preserved statistically significantly
Example 7-2
  alleviation of disease (colon length and diameter) compared to the vehicle group: significantly alleviated
